Entries after “also recorded” stand apart in the source; their conditions may differ.

The results in this text go back to patent US20210205292A1, “INHIBITORS OF CREB-CBP INTERACTION FOR TREATMENT OF LEUKEMIA” (The Board of Trustees of the Leland Stanford Junior …, priority 2016, published 2021).

Data set [1] is described as follows: In vivo toxicity in NSG mice not injected with AML cells. Set-up: species or system mouse. On the procedure: To assess the potential in vivo toxicities of Compound A, four groups of five mice not injected with AML cells were treated with 2.3 mg/kg Compound A intravenously daily, or 20, 40 or 60 mg/kg intraperitoneally (IP) daily for 28 days.
Data set [2] has as its system CREB target genes in KG-1 and HL-60 cells. The data set is described as follows: RT-PCR of target genes in KG-1 and HL-60 cells. It counts as cell-based. On the procedure: Total RNA was isolated using the Aurum RNA Isolation Mini Kit, and the iScript cDNA Synthesis Kit was used to prepare samples for qPCR (Bio-Rad). PCR was performed on the CFX384 Real-Time System (Bio-Rad) and results were analyzed using the Livak method. For analysis of RNA-seq data as target genes of known transcription factors, a curated list of all human target genes was extracted from the TRANSFAC Pro database.
To assess for potential ‘off-target’ effects of Compound A, the RNA-Seq gene expression profiles of other transcription factors that bind CBP, including Rel, RelA, RelB, Foxo3, Foxo1 and Myb, were analyzed. […] PLoS One. 2011; 6(12):e28712) (FIG. 9, panel E).

A further data set relates to HL-60 AML cells. The data set can be described thus: HL-60 AML xenograft in NSG mice. It counts as in vivo. Particulars: for GFP+ cells in bone marrow / GFP+ cells in spleen / spleen weight: endpoint. The protocol: For AML xenograft mouse experiments, HL-60 cells (2×10^6) expressing firefly luciferase and GFP, or cryopreserved human AML patient cells (5×10^6), were injected through the tail vein into NOD.Cg-prkdc^scid Il2rg^tm1WjlSzJ (NSG) mice. Mice were then Compound A or 10% DMSO, injected intravenously by tail vein daily, until death or an endpoint was reached (moribundity) in accordance with the animal care institutional guidelines. All mouse experiments were subject to institutional approval by Stanford University Institutional Animal Care and Use Committee. Leukemia progression in mice at the indicated time points was monitored using an in vivo IVIS 100 bioluminescenceoptical imaging system (Xenogen Corporation). D-Luciferin (Promega) dissolved in sterile phosphate-buffered saline was injected intraperitoneally at a dose of 2.5 mg/kg, 15 minutes before measuring the luminescent signal. General anesthesia was induced with […] and continued during the procedure using a nose cone. Analysis was performed on Living Image In Vivo imaging software (Perkin-Elmer). Imaging was performed in collaboration with the Stanford Small Animal Imaging Facility. Bone marrow was aspirated from bone marrow cavities, and GFP+ cells were sorted using the FACSCalibur flow cytometer (BD Biosciences).
To examine the efficacy of CREB inhibition in an in vivo model of AML, 4-6 week old NOD.Cg-Prkdc^scid Il2rg^tm1WjlSzJ (NSG) mice were tail-vein injected with HL-60 AML cells (2×10^6) expressing Firefly luciferase and GFP. Groups of ten mice received 10% DMSO or 2.3 mg/kg Compound A intravenously (IV) once daily starting the day after cell injection (immediate treatment groups), or one of the same two treatments starting seven days after AML cell injection (delayed treatment groups). This dose of Compound A was selected, as it was the maximum deliverable IV injection concentration and volume in 10% DMSO solution per gram mouse body weight. […] The efficacy of Compound A was also assessed in a mouse xenograft model using primary AML cell sample (patient sample #186), using similar methods.

The target in data set [3] is T1, KIX domain of CBP, Arginine-600 to Alanine mutant (GST fusion) (Homo sapiens, UniProt Q92793, R601A).
T1 construct: spans CBP amino acids 586-666; made in house; host or cells: E. coli BL21(DE3)
The data set can be described thus: Biacore surface plasmon resonance, binding to KIX Arg-600-Ala mutant versus native KIX. The following applies: 5 μM. The protocol: KIX domain mutants were created by standard cloning and mutagenesis methods in the pGEX4T3 vector (GE Healthcare Life Sciences). GST-KIX fusion proteins were expressed in BL21(DE3-) cells (New England Biolabs) following induction with 1 mM IPTG for 6 hours at 37 degrees. GST-KIX and its mutants were purified with the B-PER GST Fusion Protein Spin Purification Kit (Thermo Scientific/Pierce). Surface Plasmon Resonance (Biacore) analysis was performed on a GE Biacore 3000 surface plasmon resonance instrument in collaboration with the Stanford Protein and Nucleic Acid (PAN) Facility.
To confirm the binding of Compound A to the KIX domain of CBP, the KIX domain was expressed and purified as a fusion protein with Glutathione-S-Transferase (GST). Binding of Compound A to the KIX domain and two KIX domain mutants in which residues critical for CREB binding were altered or removed (Arg-600 mutated to Alanine or deletion of amino acids 586-602) was determined by Surface Plasmon Resonance (Biacore) analysis (FIG. 1, panel B). Mutation of Arginine-600 to Alanine reduced binding of Compound A by ˜45%, while a KIX domain mutant lacking amino acids 586-602 reduced binding by ˜70%. […] A hypothetical binding model between Compound A and CBP KIX domain is shown (FIG. 1, panel C). […]
A general note: SPR reads the build-up and loss of mass on a sensor chip optically.

The test system of a further data set is H3K27 acetylation. The data set is described as follows: Western blot of total and H3K27-specific histone acetylation. It counts as cell-based. The following applies: 6 or 24 hours. The protocol:
Cells were lysed in RIPA buffer (Sigma), and the protein concentrations were determined by BCA assay (Thermo Scientific Pierce). Lysates were solubilized in 6×SDS PAGE buffer and […] of protein was loaded into 6-15% SDS PAGE gels, pheresed, and then transferred onto […] PVDF membrane (Millipore). Primary antibodies were applied at a dilution of 1:1000. Anti-Bcl-2, -Bax, -Mcl-1, -Bcl-XL, -Cyclin A and -Cyclin D1 antibodies were purchased from Cell Signaling Technologies. Anti-total acetylated histone and -ac-H3K27 were purchased from Santa Cruz Biotechnologies. Anti-actin and -CREB antibodies were purchased from upstate. Secondary antibodies were used at a 1:2500 dilution and purchased from Thermo Scientific/Pierce. WesternBright ECL was used for image acquisition on Image Lab software (Bio-Rad).
(In general: In western blotting, separated proteins are transferred to a membrane and probed.)

Setting [4] is: 2.3 mg/kg IV or 20, 40 or 60 mg/kg IP daily, 28 days.
Setting [5] is: delayed treatment group (from day 7), 2.3 mg/kg IV once daily.
The mark [6] stands for this setting: immediate treatment group, 2.3 mg/kg IV once daily.

T1 sequence (Q92793 586-666 R601A): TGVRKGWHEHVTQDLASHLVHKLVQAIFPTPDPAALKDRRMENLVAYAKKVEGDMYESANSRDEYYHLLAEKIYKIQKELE

In the case of `N#Cc1ccc(NC(=O)c2cc3ccccc3cc2O)cc1` [Compound A, N-(4-cyanophenyl)-3-hydroxy-2-naphthamide], in data set [1] (setting [4]), the “complete blood counts, liver function tests and kidney function tests” value was “no difference; also recorded: normal complete blood counts, liver function tests and kidney function tests”; the tissue histology result is reported as “no evidence of fibrosis or damage; also recorded: no microscopic evidence of vital organ damage”. In addition, in data set [1] (over 28 days), the animal body weight entry is “no decrease in animal body weight”. In data set [2], the “Myb-driven gene expression (SP3, FPR1, PRODH, SLC34A2)” value was “No changes in gene expression were observed”. In addition, the “CREB target gene expression (qPCR)” value in data set [2] (conditions as for RNA-Seq) is reported as “consistently reduced CREB target gene expression”. Besides, in the data set with HL-60 AML cells (Compound A-treated group), the “mean weight of visceral tumors” value was found to be 0.027 ± 0.019 g and the “mice that developed visible visceral tumors (chloromas)” value is 4 of 10. In addition, in the data set with HL-60 AML cells (across groups), the liver weights entry was “no differences in liver weights”. In addition, the “circulating leukemia cells (blood counts and smear)” value in the data set with HL-60 AML cells (at the time of sacrifice) is listed as “none of the Compound A-treated mice had detectable circulating leukemia cells”. Moreover, in the data set on HL-60 AML cells (delayed group), the “GFP+ cells in bone marrow” value was found to be 19.9±8.22%, the “GFP+ cells in spleen” value is given as 4.1±1.44% and the spleen weight stood at 50.6 ± 9.1 mg. In the data set with HL-60 AML cells (setting [5]), the mean survival is 26.4 days and the median survival was 24 days. For the same compound, the “average radiance (bioluminescence imaging)” value in the data set on HL-60 AML cells (delayed treatment, 2.3 mg/kg IV once daily, day 17) is 2.8×10^5 p/sec/cm^2/sr. In the data set with HL-60 AML cells (immediate group), the “GFP+ cells in bone marrow” value is listed as 9.3±1.28%, the “GFP+ cells in spleen” value is listed as 0.64±0.27% and the spleen weight came out at 43.3 ± 3.6 mg. Also, in the data set on HL-60 AML cells (setting [6]), the mean survival was determined as 31.2 days and the median survival was 31 days. Further, the “reduction of binding of Compound A by mutation of Arginine-600 to Alanine” value in data set [3] is recorded as roughly 45%. Also, the “H3K27 acetylation (Western blot)” value in the data set on H3K27 acetylation is recorded as “specific decrease in H3K27 acetylation”.
